From publication PMC7449411, “In silico discovery and biological validation of ligands of FAD synthase, a promising new antimicrobial target” (PLoS Computational Biology, 2020)
Converted amounts (≈) assume the structure as drawn.

Legend:
C. glutamicum = test: MIC, resazurin broth microdilution; type: cell-based, Corynebacterium glutamicum; conditions: media BHI
CaFADS = molecular target: T1, CaFADS (Corynebacterium ammoniagenes, UniProt Q59263); test: Differential scanning fluorescence (thermal denaturation) binding to CaFADS; conditions: for Tm shift of CaFADS thermal denaturation: 2 μM CaFADS, compound up to 250 μM; for Kd: from differential scanning fluorescence data fitted to Eq 2, 20 mM PIPES pH 7.0, 10 mM MgCl2, 2% DMSO, n = 3, mean ± SD
T1 construct: made in house; host or cells: Escherichia coli BL21(DE3)
T1 sequence (Q59263 whole entry): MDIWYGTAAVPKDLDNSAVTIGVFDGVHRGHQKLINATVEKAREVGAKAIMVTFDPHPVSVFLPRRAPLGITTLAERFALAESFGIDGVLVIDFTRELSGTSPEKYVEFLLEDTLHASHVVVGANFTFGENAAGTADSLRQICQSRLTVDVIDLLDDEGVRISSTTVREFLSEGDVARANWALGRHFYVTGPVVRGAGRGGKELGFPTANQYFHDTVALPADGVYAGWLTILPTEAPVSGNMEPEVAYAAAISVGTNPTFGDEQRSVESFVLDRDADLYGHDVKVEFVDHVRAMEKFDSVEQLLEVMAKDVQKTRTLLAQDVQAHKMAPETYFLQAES
Protocol: Interaction of compounds with CaFADS was evaluated using fluorescence thermal denaturation, on the bases of the shifts in denaturation midpoints of thermal curves of the protein [65]. Denaturations were performed in a Stratagene Agilent Mx3005p qPCR instrument (Santa Clara, US) following SYPR Orange (ThermoFisher Scientific) emission fluorescence (excitation at 492 nm and emission at 610 nm), which greatly increases when this probe binds to protein hydrophobic regions becoming solvent exposed upon thermal unfolding. Solutions containing 2 μM CaFADS with the studied compound in an increasing 5-250 μM concentration range (2% residual final concentration of DMSO) and 5xSYPR Orange in 20 mM PIPES pH 7.0, 10 mM MgCl2, with a 100 μL total volume were dispensed into 96-well microplates (BRAND 96-well plates pure grade™). After an initial 1 min incubation at 25 °C within the equipment, unfolding curves were registered from 25 to 100 °C at 1 °C·min^−1. Control experiments with CaFADS samples with/without DMSO were routinely performed in each microplate. For those compounds shifting midpoint denaturation temperature, Tm, the dissociation constant, Kd, was predicted by fitting the data to the equation [66] ΔTm/Tm=NRTm0/ΔH0ln(1+[L]/Kd), (2) which estimates the extent of the ligand-induced protein stabilization/destabilization. ΔTm=|Tm-Tm0| with Tm0 and Tm being the midpoint denaturation temperatures in the absence and the presence of ligand, respectively, and ΔH0 the unfolding enthalpy of the protein in the absence of ligand.

S. thyphimurium = test: MIC, resazurin broth microdilution; type: cell-based, Salmonella thyphimurium; conditions: media MH
[1] = molecular target: T2, RFK+FMNAT CaFADS activities (Corynebacterium ammoniagenes, UniProt Q59263); test: Inhibition of the RFK+FMNAT activity of CaFADS; type: biochemical; conditions: 25 °C; for IC50: kinetic measurements, 20 mM PIPES pH 7.0, 10 mM MgCl2, 2% DMSO; for RFK+FMNAT % Res. act. 250 μM: residual activity at 250 μM of compound
T2 construct: made in house; host or cells: Escherichia coli BL21(DE3)
T2 sequence (Q59263 whole entry): as above
Protocol: (§1) To determine the compound’s ability to inhibit the RFK and/or the FMNAT activities of CaFADS, both enzymatic activities were quantitatively measured in the absence and presence of the compounds following previously described protocols. Reaction mixtures contained 50 μM ATP, 5 μM RF in 20 mM PIPES, pH 7.0, 0.8 mM MgCl2, when assaying the RFK activity, and 50 μM ATP, 10 μM FMN in 20 mM PIPES, pH 7.0, 10 mM MgCl2 when measuring the FMNAT reaction. Each compound was tested at 250 μM (0.5% residual final concentration of DMSO) for each of the two enzymatic reactions. The samples were pre-incubated at 25 °C, the reaction was then initiated by the addition of ∼ 40 nM CaFADS (final concentration) and allowed for 1 min. Finally, the reaction was stopped by boiling the samples for 5 min and the denatured protein was eliminated through centrifugation. The transformation of RF into FMN and FAD (RFK activity) and of FMN into FAD (FMNAT activity) was evaluated through flavins separation by HPLC (Waters), as previously described. All the experiments were performed in triplicate. To evaluate the potency of compounds as inhibitors, we took advantage of the decrease in quantum yield of fluorescence when FMN is transformed into FAD, which allows to follow such transformation in a continuous system. Measurements were carried out using a microplate reader Synergy HT multimode plate reader (Biotek) with BRAND 96-well plates pure Grade. Reaction mixtures contained 5 μM RF or FMN, and 50 μM ATP in 20 mM PIPES, pH 7.0, 10 mM MgCl2, and the inhibitor compound in a 5-250 μM concentration range (2% residual final concentration of DMSO). Reactions were initiated through addition of 0.4 μM CaFADS, being the final reaction volume 100 μL. Flavin fluorescence (excitation at 440 nm and emission at 530 nm) was registered at 25 °C, every 50 s during 15 min. The fluorescence change per time unit (ΔF/Δt) was calculated as the slope of the resulting fluorescence decays recorded between 0 and 6 min (linear decay of the fluorescence). Controls which contained the reaction mixture without the enzyme and without any potential CaFADS inhibitory compound were included in the assay and referred as the 0% and 100% of enzymatic activity, respectively. IC50 was calculated as the concentration of compound required for a 50% inhibition of the enzymatic activity.

FMNAT activity of CaFADS = molecular target: T3, FMNAT activity of CaFADS (Corynebacterium ammoniagenes, UniProt Q59263); test: Inhibition of the FMNAT activity of CaFADS; type: biochemical; conditions: 25 °C; for IC50: kinetic measurements, 5 μM FMN, 50 μM ATP, 20 mM PIPES pH 7.0, 10 mM MgCl2, 2% DMSO; for FMNAT % Res. act. 250 μM: residual activity at 250 μM of compound
T3 construct: made in house; host or cells: Escherichia coli BL21(DE3)
T3 sequence (Q59263 whole entry): as above
Protocol: as §1

M. smegmatis = test: MIC, resazurin broth microdilution; type: cell-based, Mycobacterium smegmatis; conditions: media 7H9G-ADC
Mycobacteriumspecies = test: MIC against Mycobacterium species (S5 Fig legend); type: cell-based
C. ammoniagenes = test: MIC, resazurin broth microdilution; type: cell-based, Corynebacterium ammoniagenes; conditions: for MIC: C. ammoniagenes
C. diphteriae = test: MIC, resazurin broth microdilution; type: cell-based, Corynebacterium diphteriae
S. pneumoniae = test: MIC, resazurin broth microdilution; type: cell-based, Streptococcus pneumoniae
S. aureus = test: MIC, resazurin broth microdilution; type: cell-based, Staphylococcus aureus; conditions: media MH
E. coli = test: MIC, resazurin broth microdilution; type: cell-based, Escherichia coli; conditions: media LB
M. tuberculosis = test: MIC, resazurin broth microdilution; type: cell-based, Mycobacterium tuberculosis; conditions: for MIC: M. tuberculosis, media 7H9G-ADC
P. aeruginosa = test: MIC, resazurin broth microdilution; type: cell-based, Pseudomonas aeruginosa; conditions: media MH
L. monocytogenes = test: MIC, resazurin broth microdilution; type: cell-based, Listeria monocytogenes; conditions: media BHI
A549 = test: MTT cytotoxicity assay; type: cell-based; conditions: 24 h, complete viability at lower concentrations
Protocol: (§2) The (4,5-dimethylthiazol-2-yl)-2,5-diphenyl tetrazolium bromide (MTT) assay was used to determine the effect of the compounds in cell growth and viability of HeLa (ATCC CCL-2) and A549 (ATCC CCL-185) eukaryotic cell lines. Both cell lines were routinely cultured in high-glucose DMEM (Lonza) supplemented with 10% fetal bovine serum, 4 mM glutamine GlutaMAX™ (Gibco) and 1x non-essential amino acids (Gibco), under 5% CO2 at 37 °C in a humidified atmosphere. For the MTT assay, cells were initially seeded in 96-well flat-bottom plates at a density of 10^4 cells per well and cultured for 24 h. Cultures were routinely tested for mycoplasma presence. The compounds were dissolved in fresh culture medium, added in a 4-512 μM concentration range (1% DMSO final concentration), and incubated with the cells for 24 h. Finally, formazan crystals were dissolved with pure DMSO and MTT absorbance was measured at 570 and 650 nm. Untreated cells were included as control of 100% viability. Assays were done in quadruplicate.

HeLa = test: MTT cytotoxicity assay; type: cell-based; conditions: 24 h, complete viability at lower concentrations
Protocol: as §2

Row | SMILES | MIC (C. glutamicum) [µM] | Tm shift of CaFADS thermal denaturation (CaFADS) | Kd (CaFADS) [µM] | MIC (S. thyphimurium) [µM] | IC50 [1] [µM] | RFK+FMNAT % Res. act. 250 μM [1] [%] | IC50 (FMNAT activity of CaFADS) [µM] | FMNAT % Res. act. 250 μM (FMNAT activity of CaFADS) [%] | MIC (M. smegmatis) [µM] | MIC (C. ammoniagenes; media BHI) [µM] | MIC (C. ammoniagenes; media MH) [µM] | MIC (C. ammoniagenes; media MH+DFO) [µM] | MIC (C. ammoniagenes; media MH+DIP) [µM] | MIC (C. ammoniagenes; media MH+DIP+DFO) [µM] | MIC (C. diphteriae; media MH) [µM] | MIC (S. aureus) [µM] | MIC (E. coli) [µM] | MIC (M. tuberculosis) [µM] | MIC (P. aeruginosa) [µM] | MIC (L. monocytogenes) [µM] | further results
1 | CC1(C(=O)O)CCC2C(CCC3CC(O)CCC32C)C1C=C1Nc2ccccc2C1=O (centres unmarked) [Compound C3, 7-hydroxy-2,4b-dimethyl-1-[(3-oxo-2,3-dihydro-1H-2-indolyliden)methyl]perhydro-2-phenanthrenecarboxylic acid] | > 64 | shifted it to lower values | 18 ± 8 | > 256 | 248 ± 3 | 48 ± 5 | 238 ± 7 | 48 ± 3 | > 256 | > 64 | > 256 | > 256 | > 256 | > 256 | > 256 | > 256 | > 64 | 256 (≈ 108 µg/mL) | > 256 | > 64 | MIC Mycobacterium species (Mycobacteriumspecies): lower than 256 μM; MIC (μM) C. ammoniagenes (C. ammoniagenes; Table 3): >256 µM; MIC (C. diphteriae; media BHI): > 64 µM; MIC (S. pneumoniae; media BHI): 256 µM (≈ 108 µg/mL); MIC (S. pneumoniae; media MH): 256 µM (≈ 108 µg/mL); MIC (μM) M. tuberculosis (M. tuberculosis; Table 3): 256 µM (≈ 108 µg/mL)
2 | Cc1c(N=CN(C(=O)c2ccccc2)c2cccc([N+](=O)[O-])c2C)cccc1[N+](=O)[O-] [Compound C7, N1-(2-methyl-3-nitrophenyl)-N1-{[(2-methyl-3-nitrophenyl)imino]methyl}benzamide] | > 256 | – | – | > 256 | – | 82 ± 7 | – | >95 | – | – | > 256 | > 256 | > 256 | > 256 | > 256 | > 256 | > 256 | > 256 | > 256 | > 256 | –
3 | CSC(=NS(=O)(=O)c1c(C)noc1C)NNC(=O)Nc1ccc(Cl)cc1 [Compound C9, N1-(4-chlorophenyl)-2-[{[(3,5-dimethylisoxazol-4-yl)sulfonyl]imino}(methylthio)methyl]hydrazine-1-carboxamide] | > 64 | more than 3 degrees | 6.4 ± 1.2 | > 256 | – | 76 ± 3 | – | 56 ± 6 | > 256 | > 64 | > 256 | > 256 | > 256 | > 256 | > 256 | > 256 | > 64 | > 256 | > 256 | > 64 | MIC (C. diphteriae; media BHI): > 64 µM; MIC (S. pneumoniae; media BHI): > 256 µM; MIC (S. pneumoniae; media MH): > 256 µM
4 | O=C(O)c1ccccc1C(=O)NC1CCN(c2nccc(C(F)(F)F)n2)CC1 [Compound C18, 2-[({1-[4-(trifluoromethyl)pyrimidin-2-yl]piperidin-4-yl}amino)carbonyl]benzoic acid] | > 256 | shifted it to lower values | 3 ± 0.9 | > 256 | 147 ± 4 | – | 143 ± 4 | – | – | – | > 256 | – | > 256 | 256 (≈ 101 µg/mL) | 32 (≈ 12.6 µg/mL) | 256 (≈ 101 µg/mL) | > 256 | > 256 | > 256 | 64 (≈ 25.2 µg/mL) | concentration range with moderate cytotoxicity (A549): 256 to 512 µM; concentration range with moderate cytotoxicity (HeLa): 256 to 512 µM
5 | O=C(NCCNc1ccc(C(F)(F)F)cc1[N+](=O)[O-])c1cccnc1Oc1ccccc1 [Compound C26, N-{2-[2-nitro-4-(trifluoromethyl)anilino]ethyl}-2-phenoxynicotinamide] | > 256 | – | – | > 256 | – | 84 ± 4 | – | 72 ± 6 | – | – | > 256 | > 256 | > 256 | > 256 | > 256 | > 256 | > 256 | > 256 | > 256 | > 256 | –
